pIC50: −log10 of the molar value. In brackets after ≈: the same amount, converted by molar mass. Where two headings read alike, the source gives them in different places.
How the values were obtained:
[1] = cytotoxicity in MT-4 cells (MTT, culture medium in place of HIV); assay type: cell-based; details: human
Method in brief: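 MT-4 cells (3.5×10^4 per well) exposed to diluted compound with culture medium added instead of HIV, 5 days at 37° C in CO2. MTT added for 1 h, formazan dissolved in Triton X-100/acidified isopropanol. OD read at 560 nm (690 nm reference) and compared with control.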

[2] = system: HIV (HTLV-IIIB strain); assay: microbe, parasite or virus in culture; assay type: cell-based; details: Human immunodeficiency virus 1, IIIB, MT4, 120 h
Method in brief: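 MT-4 cells (3.5×10^4 per well) were infected with HIV at 60 pfu per well in the presence of diluted compound and incubated for 5 days at 37° C. Surviving cells were then measured by MTT reduction, with the formazan dissolved in acidified isopropanol containing Triton X-100.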

[3] = molecular target: T1, purified recombinant HIV-1 reverse transcriptase (Human immunodeficiency virus type 1 group M subtype B, UniProt P04585); assay: reverse transcriptase inhibition, poly(rA)/(dT) template primer, [3H]dTTP uptake; assay type: biochemical
T1 construct: purified recombinant HIV-1 reverse transcriptase; made in house; host or cells: Escherichia coli
Method in brief: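 Inhibition reported as percent reduction of [3H]dTTP incorporation relative to solvent control, after 1 h at 37 °C at pH 8.3. Recombinant RT from E. coli, poly(rA) template with oligo(dT) primer, 4 μM unlabeled dTTP as substrate; product collected on DEAE filter mats.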

[4] = MT-4 cells, no virus, 37° C., 5 days, MTT, Table 3, read-out: CC50
[5] = MT-4 cells, 60 pfu HIV per well, 37° C., 5 days, MTT, Tables 1 and 2, read-out: EC50

Row | Structure (SMILES) | CC50 at 120 h [1, 4] | EC50 [2, 5] | pIC50 [3] | EC50 [2] | CC50 at 120 h ([1]; mt-4 cells) | pIC50 ([3]; read-out: RT IC50, pH 8.3, 37° C., 1 hour, Tables 5 and 6)
1 | CCn1c(COCCOC(C)=O)nc(C(C)C)c1Sc1cc(Cl)cc(Cl)c1 [Compound I-62, 2-{[5-(3,5-dichlorophenylthlio)-1-ethyl-4-isopropyl-1H-imidazol-2-yl]methoxy} ethyl acetate] | 12.5 to 25 µg/mL | 0.03 to 0.06 µg/mL | 4.80 |  |  | 
2 | CCCn1c(COC(N)=O)nc(C(C)C)c1Sc1cc(Cl)cc(Cl)c1 [Compound I-51, 2-carbamoyloxymethyl-5-(3,5-dichlorophenylthio)-4-isopropyl-1-n-propyl-1H-imidazole] | 6.3 to 12.5 µg/mL (≈ 15.7 to 31.1 µM) | 0.003 to 0.005 µg/mL (≈ 0.00746 to 0.0124 µM) | 6.02 |  |  | 
3 | CCCn1c(CO)nc(C(C)C)c1Sc1cc(Cl)cc(Cl)c1 [Compound I-26, [5-(3,5-dichlorophenylthio)-4-isopropyl-1-n-propyl-1H-imidazol-2-yl]methanol] | 10 to 100 µg/mL (≈ 27.8 to 278 µM) |  | 5.60 | 0.004 to 0.008 µg/mL (≈ 0.0111 to 0.0223 µM) |  | 
4 | CC(C)c1nc(CCCO)n(C)c1Sc1cc(Cl)cc(Cl)c1 [Compound 137a, 3-(5-(3,5-dichlorophenylthio)-4-isopropyl-1-methyl-1H-imidazol-2-yl)-propan-1-ol] |  | 0.008 µg/mL (≈ 0.0223 µM) | 5.25 |  | 6.3 to 12.5 µg/mL (≈ 17.5 to 34.8 µM) | 
5 | CCn1c(COCCOC(N)=O)nc(C(C)C)c1Sc1cc(Cl)cc(Cl)c1 [Compound I-63, 2-(2-carbamoyloxyethoxy)methyl-5-(3,5-dichlorophenylthio)-1-ethyl-4-isopropyl-1H-imidazole] | 12.5 µg/mL (≈ 28.9 µM) | 0.25 µg/mL (≈ 0.578 µM) | 4.96 |  |  | 
6 | CC(C)c1nc(CO)n(Cc2ccccc2N)c1Sc1cc(Cl)cc(Cl)c1 [Compound I-119, 1-(o-aminobenzyl)-5-(3,5-dichlorophenylthio)-2-hydroxymethyl-4-isopropyl-1H-imidazole] |  | 0.13 to 0.25 µg/mL (≈ 0.308 to 0.592 µM) | 5.11 |  | 3.1 µg/mL (≈ 7.34 µM) | 
7 | CC(C)c1nc(CO)n(Cc2ccc([N+](=O)[O-])cc2)c1Sc1cc(Cl)cc(Cl)c1 [Compound 103a, 5-(3,5-dichlorophenylthio)-2-hydroxymethyl-4-isopropyl-1-(p-nitrobenzyl)-1H-imidazole] |  | < 0.008 µg/mL | 4.54 |  | 6.3 to 12.5 µg/mL (≈ 13.9 to 27.6 µM) | 
8 | CC(C)c1nc(CN)n(C(C)C)c1Sc1cc(Cl)cc(Cl)c1 [Compound I-72, 2-aminomethyl-5-(3,5-dichlorophenylthio)-1,4-diisopropylimidazole] | 1 to 10 µg/mL (≈ 2.79 to 27.9 µM) | 0.03 to 0.06 µg/mL (≈ 0.0837 to 0.167 µM) | 5.65 |  |  | 
9 | CC(C)c1nc(CO)n(Cc2ccccc2[N+](=O)[O-])c1Sc1cc(Cl)cc(Cl)c1 [Compound 103c, 5-(3,5-dichlorophenylthio)-2-hydroxymethyl-4-isopropyl-1-(o-nitrobenzyl)-1H-imidazole] |  | 0.06 to 0.13 µg/mL (≈ 0.133 to 0.287 µM) | 4.24 |  | 6.3 to 12.5 µg/mL (≈ 13.9 to 27.6 µM) | 
10 | CCOC(=O)Cn1c(COCc2ccccc2)nc(C(C)C)c1Sc1cc(Cl)cc(Cl)c1 [Compound 118b] |  | 0.25 µg/mL (≈ 0.507 µM) | < 3.69 |  | 12.5 to 25 µg/mL (≈ 25.3 to 50.7 µM) | 
11 | Cc1nc(C(C)C)c(Cc2cc(Cl)cc(Cl)c2)n1C [Compound I-100, 5-(3,5-dichlorobenzyl)-1,2-dimethyl-4-isopropyl-1H-imidazole] | 12.5 µg/mL (≈ 42.1 µM) | 1 µg/mL (≈ 3.36 µM) | 4.38 |  |  | 
12 | CC(C)c1nc(CCOC(N)=O)n(C)c1Sc1cc(Cl)cc(Cl)c1 [Compound I-81, 2-(2-carbamoyloxy)ethyl-5-(3,5-dichlorophenylthio)-4-isopropyl-1-methyl-1H-imidazole] | 10 to 100 µg/mL (≈ 25.8 to 258 µM) |  | 5.11 | 0.13 µg/mL (≈ 0.335 µM) |  | 
13 | CC(C)c1nc(COC(N)=O)n(Cc2ccccc2)c1Sc1cc(Cl)cc(Cl)c1 [Compound I-45, 1-benzyl-2-carbamoyloxymethyl-5-(3,5-dichlorophenylthio)-4-isopropyl-1H-imidazole] | 12.5 µg/mL (≈ 27.8 µM) |  | 5.84 | 0.004 to 0.008 µg/mL (≈ 0.00888 to 0.0178 µM) |  | 
14 | CC(C)c1nc(CCOC(N)=O)n(CCOC(N)=O)c1Sc1cc(Cl)cc(Cl)c1 [Compound I-147, 1,2-di-(2-carbamoyloxyethyl)-5-(3,5-dichlorophenylthio)-4-isopropyl-1H-imidazole] |  | 0.005 µg/mL (≈ 0.0108 µM) | 5.36 |  | 50 to 100 µg/mL (≈ 108 to 217 µM) | 
15 | C=CCn1c(COC(N)=O)nc(C(C)C)c1Sc1cccc([N+](=O)[O-])c1 [Compound I-48, 1-allyl-2-carbamoyloxymethyl-4-isopropyl-5-(3-nitrophenylthio)-1H-imidazole] | 25 to 50 µg/mL (≈ 66.4 to 133 µM) | 0.016 µg/mL (≈ 0.0425 µM) | 5.92 |  |  | 
16 | CCOC(=O)Cn1c(CCOCc2ccccc2)nc(C(C)C)c1Sc1cc(Cl)cc(Cl)c1 [Compound 130c] |  | 0.5 µg/mL (≈ 0.985 µM) | < 3.71 |  | 12.5 µg/mL (≈ 24.6 µM) | 

Row | Structure (SMILES) | CC50 at 120 h [1, 4] | EC50 [2, 5] | pIC50 [3] | EC50 [2] | CC50 at 120 h ([1]; mt-4 cells) | pIC50 ([3]; read-out: RT IC50, pH 8.3, 37° C., 1 hour, Tables 5 and 6)
17 | CC(C)c1nc(CO)n(CC2CC2)c1Sc1cc(Cl)cc(Cl)c1 [Compound I-30, [1-cyclopropylmethyl-5-(3,5-dichlorophenylthio)-4-isopropyl-1H-imidazol-2-yl]methanol] | 10 to 100 µg/mL (≈ 26.9 to 269 µM) | 0.005 to 0.01 µg/mL (≈ 0.0135 to 0.0269 µM) | 5.61 |  |  | 
18 | CCn1c(CCCOC(N)=O)nc(C(C)C)c1Sc1cc(Cl)cc(Cl)c1 [Compound I-149, 2-(3-carbamoyloxypropyl)-5-(3,5-dichlorophenylthio)-1-ethyl-4-isopropyl-1H-imidazole] |  | 0.01 µg/mL (≈ 0.024 µM) | 6.11 |  | 6.3 µg/mL (≈ 15.1 µM) | 
19 | CC(C)c1nc(CCOC(N)=O)n(Cc2cccc([N+](=O)[O-])c2)c1Sc1cc(Cl)cc(Cl)c1 [Compound 128b, 2-(2-Carbamoyloxyethyl)-5-(3,5-dichlorophenylthio)-4-isopropyl-1-(m-nitrobenzyl)-1H-i-imidazole] |  | 0.13 µg/mL (≈ 0.255 µM) | < 3.71 |  | 6.3 to 12.5 µg/mL (≈ 12.4 to 24.5 µM) | 
20 | CC(C)c1nc(CO)n(CC(F)(F)F)c1Sc1cc(Cl)cc(Cl)c1 [Compound I-33, 2-[5-(3,5-dichlorophenylthio)-4-isopropyl-1-(1,1,1-trifluoroethyl)-1H-imidazol-2-yl]methanol] | 10 to 100 µg/mL (≈ 25 to 250 µM) | 0.016 µg/mL (≈ 0.0401 µM) | 5.01 |  |  | 
21 | CC(C)c1nc(CCCO)n(Cc2ccncc2)c1Sc1cc(Cl)cc(Cl)c1 [Compound 137c, 3-(5-(3,5-dichlorophenylthio)-4-isopropyl-1-(pyridin-4-ylmethyl)-1H-imidazol-2-yl)-propan-1-ol] |  | 0.003 to 0.005 µg/mL (≈ 0.00687 to 0.0115 µM) | 6.15 |  | 6.3 to 12.5 µg/mL (≈ 14.4 to 28.6 µM) | 
22 | Cc1cc(C)cc(S(=O)(=O)c2c(C(C)C)nc(C)n2C)c1 [Compound I-105, 5-(3,5-dimethylphenylsulfonyl)-4-isopropyl-1,2-dimethyl-1H-imidazole] | 50 to 100 µg/mL (≈ 163 to 326 µM) | 0.5 µg/mL (≈ 1.63 µM) | 3.77 |  |  | 
23 | CC(C)c1nc(CN)n(C)c1Sc1cc(Cl)cc(Cl)c1.O=C(O)C(=O)O [Compound I-66, 2-aminomethyl-5-(3,5-dichlorophenylthio)-4-isopropyl-1-methylimidazole oxalate] | 6.3 to 12.5 µg/mL | 0.016 µg/mL | 5.78 |  |  | 
24 | CC(C)c1nc(CCN)n(C)c1Sc1cc(Cl)cc(Cl)c1 [Compound I-82, 2-(2-aminoethyl)-5-(3,5-dichlorophenylthio)-4-isopropyl-1-methyl-1H-imidazole] |  | 0.25 µg/mL (≈ 0.726 µM) |  |  | 1.5 to 3.2 µg/mL (≈ 4.36 to 9.29 µM) | 5.89
25 | CCc1nc(C)n(C)c1Sc1cc(C)cc(C)c1 [Compound I-5, 1,2-dimethyl-5-(3,5-dimethylphenylthio)-4-ethylimidazole] | 1 to 10 µg/mL (≈ 3.84 to 38.4 µM) | 0.06 µg/mL (≈ 0.23 µM) | 5.05 |  |  | 
26 | CC(C)c1nc(CC(N)=O)n(C)c1Sc1cc(Cl)cc(Cl)c1 [Compound I-135, 2-[5-(3,5-dichlorophenylthio)-4-isopropyl-1-methyl-1H-imidazol-2-yl] acetamide] |  | 0.016 to 0.03 µg/mL (≈ 0.0447 to 0.0837 µM) | 4.97 |  | 25 to 50 µg/mL (≈ 69.8 to 140 µM) | 
27 | Cc1cc(C)cc(Sc2c(C(C)C)nc(C=NN)n2C)c1 [Compound I-11, 5-(3,5-dimethylphenylthio)-4-isopropyl-1-methyl-1H-imidazole-2-carbaldehyde hydrazone] | 1 to 10 µg/mL (≈ 3.31 to 33.1 µM) | 0.25 µg/mL (≈ 0.827 µM) | 4.26 |  |  | 
28 | CC(C)c1nc(CO)n(Cc2cnc3ccccc3c2)c1Sc1cc(Cl)cc(Cl)c1 [Compound 109, 2-hydroxymethyl-5-(3,5-dichlorophenylthio)-4-isopropyl-1-(quinolin-3-ylmethyl)-1H-imidazole] |  | 0.008 µg/mL (≈ 0.0175 µM) | 5.36 |  | 100 µg/mL (≈ 218 µM) | 
29 | CC(C)c1nc(CO)n(C)c1Sc1cccc(Cl)c1 [Compound I-13, [5-(3-chlorophenylthio)-4-isopropyl-1-methyl-1H-imidazol-2-yl]methanol] | 25 µg/mL (≈ 84.2 µM) | 0.06 µg/mL (≈ 0.202 µM) | 5.57 |  |  | 
30 | CC(C)c1nc(CCO)n(C)c1Sc1cc(Cl)cc(Cl)c1 [Compound I-81a, 2-[5-(3,5-dichlorophenylthio)-4-isopropyl-1-methyl-1H-imidazol-2-yl]ethanol] | 12.5 µg/mL (≈ 36.2 µM) |  | 6.39 | 0.001 µg/mL (≈ 0.0029 µM) |  | 
31 | CC(C)c1nc(CN)n(Cc2ccccn2)c1Sc1cc(Cl)cc(Cl)c1 [Compound I-95] |  | 0.03 to 0.06 µg/mL (≈ 0.0736 to 0.147 µM) | 5.76 |  | 6.3 µg/mL (≈ 15.5 µM) | 
32 | Cc1cc(C)cc(Sc2c(C(C)C)nc(CO)n2C)c1 [Compound I-9, [5-(3,5-dimethylphenylthio)-4-isopropyl-1-methyl-1H-imidazol-2-yl]methanol] | 10 µg/mL (≈ 34.4 µM) | 0.008 µg/mL (≈ 0.0275 µM) | 5.08 |  |  | 
